The source of these data is patent US20020198254A1, “Polyamide analogs” (priority 2000, published 2002).

≈ marks a conversion by molar mass, not a printed value.

Common to all, as to assay type: cell-based
Assay [1] deals with VRE-UL17 (vancomycin resistant enterococci). The assay can be described thus: MIC assay, VRE strain UL-17. The conditions noted are these: for MIC Assay VRE Strains: UL-17 van25: 25 μg/mL Vancomycin - 24 h; for MIC Assay VRE Strains: UL-17 van0: No vancomycin - 16 h. The method, then: (§1) These assays are adapted from NCCLS protocols M7-A4 and M27-A (NCCLS vol 17:9 and vol 17:2) as modified by Sandven, S. Clin. Micro. (1999) 37:12, p.3856-3859. MIC values for Aspergillus fumigatus were determined using NCCLS protocol M38-P.
(§2) All compounds were dissolved in 100% DMSO to a stock concentration of 10 mM and use fresh or stored at −80° C. Stock compounds were kept frozen until needed and used freshly with no more then one freeze-thaw cycle. When used for test purposes, compounds were diluted in the appropriate media depending on the organism being tested.
(§3) For yeast and aspergillus species, seven 1:2 serial dilutions of compound in appropriate media buffered with MOPS at pH 7.0 were prepared such that the final starting test compound concentrations were 50.0 uM for yeast and 50 uM aspergillus species. For bacteria, dilutions were made in growth media used for the particular bacteria being tested.
(§4) Inoculums are made in the same manner as yeast except all dilutions are made in normal saline, with a final dilution of 1:200 and an inoculum of 10 μL. VRE are vancomycin resistant enterococci, BM4147 and UCD-3 represent two different sources of VRE. MRSA are […] resistant Staphylococcus Aureus.

For assay [2], the system named is Moraxella catarrhalis. The assay can be described thus: MIC assay, M. catarrhalis. The conditions noted are these: BHI, 16 h. The method, then: as §1, §2, §3, §4
In assay [3] the test system is Haemophilus influenzae. Put plainly: MIC assay, H. influenzae. To be noted: HTM, 24 h. As for the experimental part: as §1, §2, §3, §4
In assay [4] the test system is VRE-CSUC4 (vancomycin resistant enterococci). The assay can be described thus: MIC assay, VRE strain CSUC-4. The conditions noted are these: for MIC Assay VRE Strains: CSUC-4 van25: 25 μg/mL Vancomycin - 24 h; for MIC Assay VRE Strains: CSUC-4 van0: No vancomycin - 16 h. The method, then: as §1, §2, §3, §4
Assay [5] has as its system Bacillus cereus. The assay can be described thus: MIC assay, B. cereus. To be noted: CAMHB, 16 h. As for the experimental part:
as §1, §2, §3, §4

Assay [6] has as its system Streptococcus pneumoniae. The assay can be described thus: MIC assay, S. pneumoniae. The conditions noted are these: CAMHB + 5% LHB, 24 h. The method, then: as §1, §2, §3, §4
In assay [7] the test system is VRE-BM4147 (vancomycin resistant enterococci). The assay can be described thus: MIC assay, VRE strain BM4147. The conditions noted are these: for MIC Assay VRE Strains: BM4147 van25: 25 μg/mL Vancomycin - 24 h; for MIC Assay VRE Strains: BM4147 van0: No vancomycin - 16 h. The method, then:
as §1, §2, §3, §4

The subject of assay [8] is Staphylococcus aureus. Put plainly: MIC assay, S. aureus. The conditions noted are these: CAMHB, 16 h. The method, then:
as §1, §2, §3, §4

The subject of assay [9] is Pseudomonas aeruginosa. Put plainly: MIC assay, P. aeruginosa. The conditions noted are these: CAMHB, 16 h. As for the experimental part:
as §1, §2, §3, §4

Assay [10] concerns VRE-UCD3 (vancomycin resistant enterococci). Put plainly: MIC assay, VRE strain UCD-3. The conditions noted are these: for MIC Assay VRE Strains: UCD-3 van25: 25 μg/mL Vancomycin - 24 h; for MIC Assay VRE Strains: UCD-3 van0: No vancomycin - 16 h. The method, then:
as §1, §2, §3, §4

Assay [11] concerns Candida albicans. Put plainly: MIC assay, yeast C. albicans. To be noted: RPMI, 48 h, Alamar Blue. For orientation: Alamar Blue is a resazurin reagent that responds to reducing activity.

In the case of `Cn1cc(NC(=O)c2cc(NC(=O)c3cc(NC(=O)CN)cn3C)cn2C)cc1C(=O)NCCCN(CCCN)CCCNC(=O)c1cc(NC(=O)c2cc(NC(=O)c3cc(NC(=O)CN)cn3C)cn2C)cn1C` [Compound 66, N,N-bis-{4-{4-[(NH2CH2CONH)-1-methyl-1H-pyrrol-2-yl-carbonylamino]-1-methyl-1H-pyrrol-2-ylcarbonylamino}-1-methyl-1H-pyrrol-2-yl-carbonylaminopropyl}-N-(3-aminoethylpropyl)amine], in assay [1], the “MIC Assay VRE Strains: UL-17 van25” value was greater than 45.5 µM. Also, the “MIC Assay Other Strains: M. catarrhalis” value in [2] is greater than 45.5 µM. In [3], the “MIC Assay Other Strains: H influenzae” value was greater than 45.5 µM. For the same molecule, the “MIC Assay VRE Strains: CSUC-4 van25” value in assay [4] is greater than 45.5 µM. In addition, the “MIC Assay Other Strains: B. cereus” value in [5] was greater than 45.5 µM. Moreover, the “MIC Assay Other Strains: S. pneumoniae” value in assay [6] is greater than 45.5 µM. Besides, in assay [7], the “MIC Assay VRE Strains: BM4147 van25” value is greater than 45.5 µM. The “MIC Assay Other Strains: S. aureus” value in [8] is greater than 45.5 µM. In addition, the “MIC Assay Other Strains: P. aeruginosa” value in assay [9] was greater than 45.5 µM. Further, the “MIC Assay VRE Strains: UCD-3 van25” value in assay [10] is greater than 45.5 µM. Also, in assay [11], the “MIC Assay C. Albicans” value was greater than 44.4 µM.
Turning to `Cn1cc(NC(=O)c2cc(NC(=O)CN)cn2C)cc1C(=O)NCCNC(=O)c1cc(NC(=O)c2cc(NC(=O)CN)cn2C)cn1C` [Compound 10, bis-1,2-{4-[(NH2CH2CONH)-1-methyl-1H-pyrrol-2-yl-carbonylamino]-1-methyl-1H-pyrrol-2-ylcarbonylamino}ethane], in [1], the “MIC Assay VRE Strains: UL-17 van25” value was greater than 45.5 µM and the “MIC Assay VRE Strains: UL-17 van0” value is greater than 45.5 µM. Besides, in [2], the “MIC Assay Other Strains: M. catarrhalis” value was greater than 45.5 µM. For the same molecule, in [3], the “MIC Assay Other Strains: H influenzae” value was greater than 45.5 µM. For the same molecule, in assay [4], the “MIC Assay VRE Strains: CSUC-4 van25” value is greater than 45.5 µM and the “MIC Assay VRE Strains: CSUC-4 van0” value was greater than 45.5 µM. In addition, the “MIC Assay Other Strains: B. cereus” value in assay [5] is greater than 45.5 µM. Further, the “MIC Assay Other Strains: S. pneumoniae” value in assay [6] was greater than 45.5 µM. Further, in [7], the “MIC Assay VRE Strains: BM4147 van25” value is greater than 45.5 µM and the “MIC Assay VRE Strains: BM4147 van0” value is greater than 45.5 µM. Also, the “MIC Assay Other Strains: S. aureus” value in assay [8] was greater than 45.5 µM. Besides, the “MIC Assay Other Strains: P. aeruginosa” value in [9] was greater than 45.5 µM. Besides, in assay [10], the “MIC Assay VRE Strains: UCD-3 van25” value is greater than 45.5 µM and the “MIC Assay VRE Strains: UCD-3 van0” value was greater than 45.5 µM. The “MIC Assay C. Albicans” value in assay [11] is greater than 44.4 µM.
As for `Cn1cc(NC(=O)c2cc(NC(=O)CN)cn2C)cc1C(=O)NCCCN(CCCNC(=O)c1cc(NC(=O)c2cc(NC(=O)CN)cn2C)cn1C)CCCNC(=O)c1cc(NC(=O)c2cc(NC(=O)CN)cn2C)cn1C` [Compound 74, tris-{4-[(NH2CH2CONH)-1-methyl-1H-pyrrol-2-yl-carbonylamino]-1-methyl-1H-pyrrol-2-yl-carbonylaminopropyl}amine], in [1], the “MIC Assay VRE Strains: UL-17 van25” value stood at 22.7 µM and the “MIC Assay VRE Strains: UL-17 van0” value came to 11.4 µM (≈ 12.5 µg/mL). The “MIC Assay Other Strains: M. catarrhalis” value in [2] worked out at 1.4 µM (≈ 1.53 µg/mL). In addition, in assay [3], the “MIC Assay Other Strains: H influenzae” value is greater than 45.5 µM. Also, in assay [4], the “MIC Assay VRE Strains: CSUC-4 van25” value amounted to 22.7 µM and the “MIC Assay VRE Strains: CSUC-4 van0” value was 22.7 µM (≈ 24.8 µg/mL). In assay [5], the “MIC Assay Other Strains: B. cereus” value was determined as 11.4 µM (≈ 12.5 µg/mL). The “MIC Assay Other Strains: S. pneumoniae” value in assay [6] was 2.8 µM. In addition, in assay [7], the “MIC Assay VRE Strains: BM4147 van25” value was determined as 22.7 µM and the “MIC Assay VRE Strains: BM4147 van0” value was found to be 22.7 µM (≈ 24.8 µg/mL). For the same molecule, the “MIC Assay Other Strains: S. aureus” value in [8] worked out at 22.7 µM (≈ 24.8 µg/mL). The “MIC Assay Other Strains: P. aeruginosa” value in assay [9] was greater than 45.5 µM. In addition, in [10], the “MIC Assay VRE Strains: UCD-3 van25” value was determined as 11.4 µM and the “MIC Assay VRE Strains: UCD-3 van0” value is 5.7 µM (≈ 6.23 µg/mL). Besides, in assay [11], the “MIC Assay C. Albicans” value is greater than 44.4 µM.
